A word on the inhibition: it is how much of the control response was suppressed. The low end stands for a response near the control, the high end for a response far below the control.

The text below walks through data of patent US3952012A, “Aroyl-substituted pyrroles” (McNeil Laboratories, Incorporated, priority 1974, dated 1976).

In one experiment the test system is kaolin-induced rat paw edema. The experiment can be described thus: kaolin-induced rat paw edema assay: inhibition of paw swelling, single oral dose. The class given is in vivo, rat (male Holtzman). The note with it: 3.0 mg/kg. As to the method: In the kaolin-induced rat paw edema assay, the ability of a compound, when administered in a single oral dose, to inhibit the swelling of the rat paw injected with a standard amount (0.1 ml.) of 10% kaolin suspension in saline is measured. For comparative purposes, the activity of the compound to be tested is measured against that produced by the known anti-inflammatory agent, phenylbutazone. Male Holtzman rats are used in the assay.
For the molecule `Cc1cc(C(C)C(=O)O)n(C)c1C(=O)c1ccc(Cl)cc1` (stereo not drawn) [5-(p-Chlorobenzoyl)-1,4,α-trimethylpyrrole-2-acetic acid], the inhibition was found to be 37%.

Consider `CCc1cc(CC(=O)O)n(C)c1C(=O)c1ccc(Cl)cc1` [5-(p-Chlorobenzoyl)-4-ethyl-1-methylpyrrole-2-acetic acid], for which the inhibition was 29%.

Still in this experiment, the particulars now being: 9.0 mg/kg.
`Cc1cc(C(C)C(=O)O)n(C)c1C(=O)c1ccc(Cl)cc1` (stereo not drawn) [5-(p-Chlorobenzoyl)-1,4,α-trimethylpyrrole-2-acetic acid]: the inhibition was found to be 53%.

On to `CCc1cc(CC(=O)O)n(C)c1C(=O)c1ccc(Cl)cc1` [5-(p-Chlorobenzoyl)-4-ethyl-1-methylpyrrole-2-acetic acid], for which the inhibition came to 47%.

Staying with this experiment, now noted: 80 mg/kg, comparator.
Regarding `CCCCC1C(=O)N(c2ccccc2)N(c2ccccc2)C1=O` [phenylbutazone, reference compound], the inhibition is 30-40%.

Still in this experiment, the particulars now being: 100 mg/kg, comparator.
In the case of `CCCCC1C(=O)N(c2ccccc2)N(c2ccccc2)C1=O` [phenylbutazone, reference compound], the inhibition is on record as 50-60%.

The experiment is the same for the next values; noted with them: Rattus norvegicus, po, Table I; 12.5 mg/kg p.o.; read-out: % INHIBITION (Average 10 rats).
In the case of `Cc1ccccc1C(=O)c1ccc(CC(=O)O)n1C` [5-(o-methylbenzoyl)-do, 1-Methyl-5-(o-toluoyl)-pyrrole-2-acetic acid], the inhibition in vivo at 12.5 mg/kg was found to be 34%.

The same experiment, now with this note: Rattus norvegicus, po, Table I; 25 mg/kg p.o.; read-out: % INHIBITION (Average 10 rats).
Take `Cn1c(CC(=O)O)ccc1C(=O)c1cccs1` [5-(2-thenoyl)-do, 1-Methyl-5-(2-thenoyl)-pyrrole-2-acetic acid]: the inhibition in vivo at 25 mg/kg worked out at 63%. The same measure, in the same setting: to `O=C(O)Cc1ccc(C(=O)c2ccc(Cl)cc2)[nH]1` [5-(p-Chlorobenzoyl)-pyrrole-2-acetic acid] belongs 32%. As for `CCC(C(=O)O)c1ccc(C(=O)c2ccc(Cl)cc2)n1C` (stereo not drawn) [5-(p-Chlorobenzoyl)-α-ethyl-1-methylpyrrole-2-acetic acid], the inhibition in vivo at 25 mg/kg worked out at 22%. Still for that read-out and setting: then `CCOC(=O)Cc1ccc(C(=O)c2ccc(Cl)cc2)n1C` [Ethyl 5-(p-chlorobenzoyl)-1-methylpyrrole-2-acetate], with 37%; and `Cn1c(CC(=O)O)ccc1C(=O)c1ccc(Cl)cc1` [5-(p-Chlorobenzoyl)-1-methylpyrrole-2-acetic acid], with 47%; and `Cn1c(CC(=O)O)ccc1C(=O)c1ccc(N)cc1` [5-(p-aminobenzoyl)-do, 5-(p-Aminobenzoyl)-1-methylpyrrole-2-acetic acid], with 23%. The same measure, in the same setting: to `Cn1c(CC(=O)O)ccc1C(=O)c1ccc(Cl)cc1Cl` [5-(2',4'-dichlorobenzoyl)-do, 5-(2',4'-Dichlorobenzoyl)-1-methylpyrrole-2-acetic acid] belongs 51%; to `Cn1c(CCC(=O)O)ccc1C(=O)c1ccc(Cl)cc1` [5-(p-Chlorobenzoyl)-1-methylpyrrole-2-propionic acid], 63%. As to `CCN(CC)C(=O)Cc1ccc(C(=O)c2ccc(Cl)cc2)n1C` [5-(p-Chlorobenzoyl)-N,N-diethyl-1-methylpyrrole-2-acetamide], the inhibition in vivo at 25 mg/kg came to 36%. On to `Cc1ccc(C(=O)c2ccc(CC(=O)O)n2C)cc1` [5-(p-methylbenzoyl)-do, 5-(p-Toluoyl)-1-methylpyrrole-2-acetic acid], for which the inhibition in vivo at 25 mg/kg amounted to 44%. Still for that read-out and setting: to `CCNC(=O)Cc1ccc(C(=O)c2ccc(Cl)cc2)n1C` [5-(p-Chlorobenzoyl)-N-ethyl-1-methylpyrrole-2-acetamide] belongs 25%; to `COC(=O)Cc1ccc(C(=O)c2ccc(Cl)cc2)n1C` [Methyl 5-(p-chlorobenzoyl)-1-methylpyrrole-2-acetate], 38%. The same measure, in the same setting: to `Cc1ccc(C(=O)c2ccc(CC(=O)O)n2C)s1` [1-Methyl-5-(5-methyl-2-thenoyl)-pyrrole-2-acetic acid] belongs 48%. Still for that read-out and setting: to `Cn1c(CC(=O)O)ccc1C(=O)c1cccc(Cl)c1` [5-(m-chlorobenzoyl)-do, 5-(m-Chlorobenzoyl)-1-methylpyrrole-2-acetic acid] belongs 41%; to `Cn1c(CC(=O)O)ccc1C(=O)c1ccc(F)cc1` [5-(p-fluorobenzoyl)-do, 5-(p-fluorobenzoyl)-1-methylpyrrole-2-acetic acid], 42%; to `Cn1c(CC(=O)O)ccc1C(=O)c1ccc(C(F)(F)F)cc1` [5-(p-trifluoromethylbenzoyl)-do, 1-methyl-5-(p-trifluoromethylbenzoyl)-pyrrole-2-acetic acid], 60%. `Cn1c(CC(=O)O)ccc1C(=O)c1ccccc1Cl` [5-(o-chlorobenzoyl)-do, 5-(o-Chlorobenzoyl)-1-methylpyrrole-2-acetic acid]: the inhibition in vivo at 25 mg/kg was 44%.

Turning to `Cn1c(CC(=O)O)ccc1C(=O)c1ccccc1` [Example 5-benzoyl-do, 5-Benzoyl-1-methylpyrrole-2-acetic acid], the inhibition in vivo at 25 mg/kg was 38%.

On to `Cn1c(CC(=O)NO)ccc1C(=O)c1ccc(Cl)cc1` [5-(p-Chlorobenzoyl)-1-methylpyrrole-2-acetohydroxamic acid], for which the inhibition in vivo at 25 mg/kg amounted to 33%.

On to `COc1ccc(C(=O)c2ccc(CC(=O)O)n2C)cc1` [5-(p-methoxybenzoyl)-do, 5-(p-Anisoyl)-1-methylpyrrole-2-acetic acid], for which the inhibition in vivo at 25 mg/kg is 42%. Same read-out and setting: then `Cn1c(CC(=O)O)ccc1C(=O)c1ccc(Br)cc1` [5-(p-bromobenzoyl)-do, 5-(p-bromobenzoyl)-1-methylpyrrole-2-acetic acid], with 42%. The same measure, in the same setting: then `CCN(CC)CCNC(=O)Cc1ccc(C(=O)c2ccc(Cl)cc2)n1C` [5-(p-Chlorobenzoyl)-N-(2-diethylaminoethyl)-1-methylpyrrole-2-acetamide], with 27%.

The experiment is the same for the next values; noted with them: Rattus norvegicus, po, Table I; 50 mg/kg p.o.; read-out: % INHIBITION (Average 10 rats).
Regarding `O=C(O)Cc1ccc(C(=O)c2ccc(Cl)cc2)n1Cc1ccccc1` [1-Benzyl-5-(p-chlorobenzoyl)-pyrrole-2-acetic acid], the inhibition in vivo at 50 mg/kg is 23%. The same measure, in the same setting: to `Cn1c(CC(N)=O)ccc1C(=O)c1ccc(Cl)cc1` [5-(p-Chlorobenzoyl)-1-methylpyrrole-2-acetamide] belongs 35%; to `Cc1c(CC(=O)O)c[nH]c1C(=O)c1ccc(Cl)cc1` [5-(p-Chlorobenzoyl)-4-methylpyrrole-3-acetic acid], 43%; to `CC(C(=O)O)c1ccc(C(=O)c2ccc(Cl)cc2)n1C` (racemic) [5-(p-chlorobenzoyl)-α-methyl-1-methylpyrrole-2-acetic acid], 56%.

Still in this experiment, the particulars now being: Rattus norvegicus, po, Table I; 100 mg/kg p.o.; read-out: % INHIBITION (Average 10 rats).
In the case of `Cn1c(CC(=O)O)ccc1C(=O)c1ccc(C#N)cc1` [5-(p-cyanobenzoyl)-do, 5-(p-cyanobenzoyl)-1-methylpyrrole-2-acetic acid], the inhibition in vivo at 100 mg/kg is 20%. In the case of `CCn1c(CC(=O)O)ccc1C(=O)c1ccc(Cl)cc1` [5-(p-Chlorobenzoyl)-1-ethylpyrrole-2-acetic acid], the inhibition in vivo at 100 mg/kg was 43%. For the molecule `Cn1c(CC(=O)O)ccc1C(=O)c1ccc([N+](=O)[O-])cc1` [5-(p-nitrobenzoyl)-do, 5-(p-Nitrobenzoyl)-1-methylpyrrole-2-acetic acid], the inhibition in vivo at 100 mg/kg worked out at 35%.

Turning to `Cc1cc(CC(=O)O)[nH]c1C(=O)c1ccccc1` [5-benzoyl-4-methylpyrrole-2-acetic acid, 5-Benzoyl-4-methylpyrrole-2-acetic acid], the inhibition in vivo at 100 mg/kg worked out at 34%.

The same experiment, now with this note: Table I; 25 mg/kg p.o.; 25 mg/kg.
Take `CC(C(=O)O)c1ccc(C(=O)c2ccc(Cl)cc2)n1C` (single isomer, unassigned; (+)) [(+)-5-(p-chlorobenzoyl)-α-methyl-1-methylpyrrole-2-acetic ac] [(+)-5-(p-chlorobenzoyl)-1,α-dimethylpyrrole-2-acetic acid]: the “% INHIBITION (Average 10 rats)” value is 62%. For the molecule `CC(C(=O)O)c1ccc(C(=O)c2ccc(Cl)cc2)n1C` (single isomer, unassigned; (-)) [(-)-5-(p-chlorobenzoyl)-α-methyl-1-methylpyrrole-2-acetic ac] [(-)-5-(p-chlorobenzoyl)-1,α-dimethylpyrrole-2-acetic acid], the “% INHIBITION (Average 10 rats)” value is 24%.

Still in this experiment, the particulars now being: dose of 2.5 mg/kg.
For `Cc1cc(CC(=O)O)n(C)c1C(=O)c1ccc(Cl)cc1` [5-(p-chlorobenzoyl)-1,4-dimethylpyrrole-2-acetic acid], the inhibition amounted to 51%.

Staying with this experiment, now noted: single oral dose 12.5 mg/kg.
Turning to `Cn1c(CC(=O)O)ccc1C(=O)c1ccc(Cl)cc1` [5-(p-Chlorobenzoyl)-1-methylpyrrole-2-acetic acid], the inhibition entry is on record as “about 35%”.

The experiment is the same for the next values; noted with them: single oral dose 25 mg/kg.
Regarding `Cn1c(CC(=O)O)ccc1C(=O)c1ccc(Cl)cc1` [5-(p-Chlorobenzoyl)-1-methylpyrrole-2-acetic acid], the inhibition result is “about 47%”.

The same experiment, now with this note: single oral doses of 50-100 mg/kg.
With `Cn1c(CC(=O)O)ccc1C(=O)c1ccc(Cl)cc1` [5-(p-Chlorobenzoyl)-1-methylpyrrole-2-acetic acid], the inhibition is on record as 45-53%.

The subject of the next experiment is cotton pellet granuloma. The experiment can be described thus: cotton pellet granuloma assay: granuloma tissue formed around implanted cotton pellet. Type of experiment: in vivo, rat (male Holtzman). The note with it: 25 mg/kg orally, daily for seven days; water controls 110 mg. As to the method:
In the cotton pellet granuloma assay, the ability of a compound, when administered orally to male Holtzman rats daily for seven days, to inhibit the amount of granuloma tissue formed in or around a cotton pellet implanted beneath the skin in the thoracic region of the animal is measured and compared to water controls. The method is described by Charles A. Winter and coworkers in J. Pharmacol., 141, 369 (1963). Analysis of variance is used to determine the significance of the results.
As for `COc1ccc(C(=O)c2ccc(CC(=O)O)n2C)cc1` [5-(p-methoxybenzoyl)-do, 5-(p-Anisoyl)-1-methylpyrrole-2-acetic acid], the granuloma weight result is reported as “about 71 mg”.

The same experiment, now with this note: 100 mg/kg orally, daily for seven days; water controls 115 mg.
For the molecule `Cn1c(CC#N)ccc1C(=O)c1ccc(Cl)cc1` [5-(p-Chlorobenzoyl)-1-methylpyrrole-2-acetonitrile], the granuloma weight entry is on record as “about 98 mg”.
